Measured values from patent publication US8575188B2 (priority 2009, dated 2013).
Read-outs that look alike come from different tables or passages of the source.

Legend:
[1] = Brain penetration, AUC in brain versus AUC plasma; details: mouse
Procedure: Certain compounds of the invention were assessed for brain penetration by comparing the AUC for plasma exposure versus the AUC in brain.

[2] = tested on: BCRP, which over expressed the breast cancer resistance protein; experiment: Efflux pump drug resistance, antiproliferation assay, BCRP over expressing line; details: for 3d BCRP/pcDNA: 3 days
Procedure: (§1) The compounds were screened for cytotoxicity using human non small cell lung cancer cell line H460. […]
(§2) Cellular drug resistance was determined using the antiproliferation assay described above.

[3] = tested on: human melanoma cell line SKMEL-28; experiment: Antiproliferation assay, 72 hrs under air, Alamar Blue; assay type: cell-based; details: Homo sapiens, SK-MEL-28
[4] = tested on: human ovarian cancer cell line IGROV-1; experiment: as above; assay type: cell-based; details: Homo sapiens, IGROV-1
[5] = In vivo pharmacokinetics, oral gavage; details: CD, mouse, in vivo, po; for AUC / Cmax: 50 mg/kg
Procedure: The data normalized to a 50 mg/kg dose are shown below (compounds were dosed at either 25 or 50 mg/kg).

human colon cancer HT-29 = experiment: Xenograft model, subcutaneous, tumor growth inhibition and body weight loss; details: for TGI (%): HT29, PO, QD × 5/wk; for Max. BWL (%): mouse, in vivo, po
Procedure: (§3) The first three models were produced by subcutaneous implantation of the appropriate number of cells into the flank of the animals. When tumor size was approximately 150 mm^3, animals were randomized into groups of 10 mice each for dosing. One arm was dosed with only vehicle and the results used for the efficacy calculations. […] TGI=(1−T/C) %. T/C ratio was calculated as T/C=(Tn−Ti)/(Cn−Ci), where Tn is tumor volume in treatment group on Day n, and Ti is the initial tumor volume in the treatment group. Cn is the tumor volume of the vehicle group on the last day of measurement. Ci is the initial tumor volume in the vehicle control group. Day n is the last measurement taken when all the animals in the vehicle group were not yet euthanized. Animals were euthanized when tumor volumes grew larger than 2000 mm^3.

[6] = tested on: human non small cell lung cancer H-460; experiment: as above; details: for TGI (%): H460, PO, QD × 5/wk, 2 weeks; for Max. BWL (%): mouse, in vivo, po
Procedure: as §3

pcDNA = experiment: Efflux pump drug resistance, antiproliferation assay, parent line; assay type: cell-based; details: air
Procedure: as §1, §2

[7] = tested on: H69 small cell lung cancer line; experiment: as above; assay type: cell-based; details: air
Procedure: as §1, §2

[8] = tested on: bone marrow progenitor cells; experiment: Bone marrow progenitor cell clonogenic assay (CFU-GM), human; details: Homo sapiens, CFU-GM, read-out: Human CFU-GM (IC50 nM) THLD
Procedure: (§4) A clonogenic assay was performed using bone marrow progenitor cells derived from the blood of mice and humans.

[9] = as above; details: human
Procedure: as §4

[10] = tested on: DX5, which over expresses the MDR 1 efflux pump; experiment: Efflux pump drug resistance, antiproliferation assay, MDR 1 over expressing line; assay type: cell-based; details: air
Procedure: as §1, §2

[11] = tested on: IGROV1 human ovarian cancer cells; experiment: Xenograft model of metastatic ovarian cancer (i.p.), survival; details: IGROV1 i.p., median survival treated / vehicle times 100, PO, QD × 5/wk, 4 weeks
Procedure: One arm was dosed with only vehicle and the results used for the efficacy calculations. […] A xenograft model of metastatic ovarian cancer was set up by the intraperitoneal (i.p) injection of 3×10^6 IGROV1 human ovarian cancer cells in nude mice. Mice were evaluated twice a week for morbidity and mortality. Kaplan-Meier survival curves were plotted.

[12] = tested on: bone marrow progenitor cells; experiment: Bone marrow progenitor cell clonogenic assay (CFU-GM), mouse; details: Mus musculus, CFU-GM, read-out: Mouse CFU-GM (IC50 nM) THLD
Procedure: as §4

[13] = as above; details: mouse
Procedure: as §4

[14] = tested on: human melanoma cell line A375; experiment: Antiproliferation assay, 72 hrs under air, Alamar Blue; assay type: cell-based; details: Homo sapiens, A-375
[15] = tested on: human non small cell lung cancer cell line H460; experiment: Antiproliferation (cytotoxicity) assay, 72 hrs under air, Alamar Blue; assay type: cell-based; details: Homo sapiens, NCI-H460; H460, inhibition of proliferation, 72 hrs under air; read-out: IC50
[16] = tested on: human melanoma cell line MAMLE-3M; experiment: Antiproliferation assay, 72 hrs under air, Alamar Blue; assay type: cell-based; details: Homo sapiens
[17] = tested on: human colon cancer cell line HT-29; experiment: as above; assay type: cell-based; details: Homo sapiens, HT-29, read-out: HT29 IC50
[18] = tested on: Messa ovarian carcinoma cell line; experiment: Efflux pump drug resistance, antiproliferation assay, parent line; assay type: cell-based; details: Homo sapiens, MES-SA, air
Procedure: […] Cells were treated with test compounds at various concentrations under air for 72 hrs, and then cell viability and proliferation were assessed by Alamar Blue staining.
as §2

[19] = tested on: human prostate cancer cell line PC-3; experiment: Antiproliferation assay, 72 hrs under air, Alamar Blue; assay type: cell-based; details: Homo sapiens, read-out: PC3 IC50
[20] = tested on: human prostate cancer cell line LNCap; experiment: as above; assay type: cell-based; details: Homo sapiens, LNCaP
[21] = tested on: human melanoma cell line SKMEL2; experiment: as above; assay type: cell-based; details: Homo sapiens, SK-MEL-2, read-out: SKMEL-2 IC50
[22] = tested on: human prostate cancer cell line DU145; experiment: as above; assay type: cell-based; details: Homo sapiens, DU-145
[23] = tested on: MRP1 over expressing H69AR line; experiment: Efflux pump drug resistance, antiproliferation assay, MRP1 over expressing line; assay type: cell-based; details: Homo sapiens, air
Procedure: as §1, §2

[24] = tested on: mouse melanoma cell line B-16-F10; experiment: Antiproliferation assay, 72 hrs under air, Alamar Blue; assay type: cell-based; details: B16-F10
H46O cells = experiment: Selective hypoxic activation of 14-nitro prodrugs in cell culture; assay type: cell-based, human; details: TH1332 at 5 micromolar, 24 hour
Procedure: H46O cells were grown to a confluent monolayer and then the 14-nitro TH1332 prodrug was added to the media at 5 micromolar concentration. Incubations were done for 24 hour either under air or nitrogen (hypoxia), media and cells were recovered, sonicated and soluble extracts were isolated by acetonitrile precipitation of proteins. The level of amino TH1338 active cytotoxin were quantitated by liquid chromotagraphy mass spectra analysis. The equivalent of 70 nanomolar TH1338 was produced under hypoxia with undetectable levels being produced under air (less than 5 nanomolar).
The analogous experiment was preformed using 1 micromolar concentration of the 14-nitro derivative TH1431. After 24 hr, 180 nanomolar of the 14 amino TH1499 was produced under nitrogen with undetectable levels produced under air (less than 5 nanomolar).

[25] = tested on: human prostate cancer PC-3; experiment: Xenograft model, subcutaneous, tumor growth inhibition and body weight loss
Procedure: as §3

[26] = 72 h, read-out: Air 3d BCRP prol. IC50 nM, air, 3 days
[27] = ratio of IC50s, BCRP over expressing versus parent line
[28] = 72 h, 3 days, read-out: Air 3d pcDNA prol. IC50
[29] = 72 h, 3 days, read-out: Air 3d H69 prol. IC50
[30] = MDR1, 72 h, 3 days, read-out: Air 3d DX5 prol. IC50
[31] = 72 h, 3 days, read-out: Air 3d MESSA prol. IC50
[32] = 72 h, 3 days, read-out: Air 3d H69ar (MRP1) prol. IC50

SMILES | Kp [1] | IC50 [2, 26] [nM] | 3d BCRP/pcDNA [2, 27] | IC50 [3] [nM] | IC50 [4] [nM] | half-life [5] [h] | AUC [5] [ng·h/mL] | Cmax [5] [ng/mL] | TGI (%) (human colon cancer HT-29; 2 weeks, 30 mg/Kg) | Max. BWL (%) (human colon cancer HT-29; 30 mg/kg) | IC50 (pcDNA; [28]) [nM] | IC50 [7, 29] [nM] | IC50 [8] [nM] | IC90 [9] [nM] | IC50 [10, 30] [nM] | T/C ([11]; 20 mg/Kg) | IC50 [12] [nM] | IC90 [13] [nM] | IC50 [15] [nM] | IC50 [18, 31] [nM] | also measured
CC[C@@]1(O)C(=O)OCc2c1c(N)c1n(c2=O)Cc2cc3ccccc3nc2-1 [TH1320] | 1.15 | 14 | 1.8919 | 3000 | 120 | 1.98 | 1620 | 547 | 44.3 | 3 | 7.4 | 91 | 130 | 1100 | 60 | 204 | 710 | 4800 | 18 | 58 | TGI (%) ([6]; 30 mg/Kg): 79.2%; Max. BWL (%) ([6]; 30 mg/kg): 3.8%; IC50 [14]: 22 nM; IC50 [16]: 776 nM; IC50 [17]: 229 nM; IC50 [19]: 43 nM; IC50 [20]: 110 nM; IC50 [21]: 170 nM; IC50 [22]: 50 nM; IC50 [23, 32]: 91 nM; IC50 [24]: 950 nM
CCc1c2c(nc3ccccc13)-c1c([N+](=O)[O-])c3c(c(=O)n1C2)COC(=O)[C@]3(O)CC [TH1332] | 0.18 | 2300 | 1.3 | – | – | 6.25 | 1820 | 380 | – | – | 1800 | – | > 1000 | > 100 | 6300 | – | > 10000 | > 10000 | 66 | 5300 | IC50 ([2]; 120 h, read-out: Air 5d BCRP prol. IC50 nM, air, 5 days): 21 nM; 5d BCRP/pcDNA ([2]; ratio of IC50s, BCRP over expressing versus parent line, 5 days): 0.875; TH1338 produced under air (H46O cells; air, undetectable levels): less than 5 nanomolar; TH1338 produced under hypoxia (H46O cells; nitrogen (hypoxia), LC-MS): 70 nM; TGI (%) (human colon cancer HT-29; 4 weeks, 150 mg/Kg): 62.8%; Max. BWL (%) (human colon cancer HT-29; 150 mg/kg): 0%; TGI (%) ([6]; 150 mg/Kg): 91.4%; Max. BWL (%) ([6]; 150 mg/kg): 11.4%; TGI (%) ([25]; PC3, PO, QD × 5/wk, 2 weeks, 150 mg/Kg): 103%; Max. BWL (%) ([25]; mouse, in vivo, po, 150 mg/kg): 1.8%; IC50 (pcDNA; 120 h, 5 days, read-out: Air 5d pcDNA prol. IC50): 24 nM; IC50 ([7]; 120 h, 5 days, read-out: Air 5d H69 prol. IC50): 4220 nM; IC50 ([10]; MDR1, 120 h, 5 days, read-out: Air 5d DX5 prol. IC50): 2740 nM; T/C ([11]; 150 mg/Kg): 159; IC50 ([18]; 120 h, 5 days, read-out: Air 5d MESSA prol. IC50): 2330 nM; IC50 ([23]; 120 h, 5 days, read-out: Air 5d H69ar (MRP1) prol. IC50): 8710 nM
CC[C@@]1(O)C(=O)OCc2c1c(N)c1n(c2=O)Cc2c-1nc1ccccc1c2C [TH1339] | – | 2.1 | 0.913 | > 10000 | 10 | – | 405 | 378 | 56.5 | 3 | 2.3 | 13 | 10 | 100 | 6.7 | 280 | 560 | 2200 | 1.8 | 8.5 | TGI (%) ([6]; 15 mg/Kg): 46.1%; Max. BWL (%) ([6]; 15 mg/kg): 0%; IC50 [14]: 3 nM; IC50 [16]: 220 nM; IC50 [17]: 69 nM; IC50 [19]: 9 nM; IC50 [20]: 23 nM; IC50 [21]: 50 nM; IC50 [22]: 2.5 nM; IC50 [23, 32]: 28 nM; IC50 [24]: 690 nM
